Experiments:
[1] = Cytotoxicity test (CCK-8); assay type: cell-based
Procedure: (§1) Met was used as a positive control. All experiments were performed in triplicate.

[2] = system: MCF-7; experiment: Cytotoxicity test (CCK-8); assay type: cell-based; details: Homo sapiens, MCF7; MCF-7, 48 h
Procedure: as §1

[3] = system: Lovo; experiment: Cytotoxicity test (CCK-8); assay type: cell-based; details: Homo sapiens, 48 h
Procedure: as §1

[4] = system: SMMC-7721; experiment: Cytotoxicity test (CCK-8); assay type: cell-based; details: Homo sapiens, SMMC-7721, 48 h
Procedure: as §1

[5] = system: HCT116; experiment: Cytotoxicity test (CCK-8); assay type: cell-based; details: Homo sapiens, HCT-116; HCT116, 48 h
Procedure: as §1

[6] = system: SW480; experiment: Cytotoxicity test (CCK-8); assay type: cell-based; details: Homo sapiens, SW480, 48 h
Procedure: as §1

[7] = system: HCT116 cells; experiment: Cell proliferation assay (CCK-8); assay type: cell-based, human; details: 100, 200, 400 μM, 24-96 h
Procedure: (§2) HCT116 and SW480 cells were seeded at a density of 2 × 10^3 per well into 96-well plates. Cell proliferation was assessed by incubating them with Cell Counting Kit-8 reagents (Dojindo, Shanghai, China) for 24 h,48 h, 72 h, 96 h at 37 °C and measuring the absorbance at 450 nm. The experiment was performed in triplicate.

[8] = system: SW480 cells; experiment: Cell proliferation assay (CCK-8); assay type: cell-based, human; details: 100, 200, 400 μM, 24-96 h
Procedure: as §2

[9] = system: SW480 xenograft tumor tissues; experiment: TUNEL and H&E staining assay; assay type: in vivo; details: versus vehicle control
Procedure: Apoptosis of tumor tissues was detected by terminal deoxynucleotidyl transferase (TdT)-mediated dUTP-biotin nick end labeling (TUNEL) stain, using an In Situ Cell Death Detection Kit (Roche, Switzerland). The hematoxylin-eosin (H&E) staining was performed to observe the pathological changes in different groups.

[10] = biological target: T1, HK2 (Homo sapiens, UniProt P52789); experiment: In vitro enzyme inhibition assay (G6P-DH coupled, NADH 340 nm); assay type: biochemical; details: for Vmax: Lineweaver-Burk
T1 construct: made in house; host or cells: E. coli BL21 (DE3)
T1 sequence (P52789 1-917): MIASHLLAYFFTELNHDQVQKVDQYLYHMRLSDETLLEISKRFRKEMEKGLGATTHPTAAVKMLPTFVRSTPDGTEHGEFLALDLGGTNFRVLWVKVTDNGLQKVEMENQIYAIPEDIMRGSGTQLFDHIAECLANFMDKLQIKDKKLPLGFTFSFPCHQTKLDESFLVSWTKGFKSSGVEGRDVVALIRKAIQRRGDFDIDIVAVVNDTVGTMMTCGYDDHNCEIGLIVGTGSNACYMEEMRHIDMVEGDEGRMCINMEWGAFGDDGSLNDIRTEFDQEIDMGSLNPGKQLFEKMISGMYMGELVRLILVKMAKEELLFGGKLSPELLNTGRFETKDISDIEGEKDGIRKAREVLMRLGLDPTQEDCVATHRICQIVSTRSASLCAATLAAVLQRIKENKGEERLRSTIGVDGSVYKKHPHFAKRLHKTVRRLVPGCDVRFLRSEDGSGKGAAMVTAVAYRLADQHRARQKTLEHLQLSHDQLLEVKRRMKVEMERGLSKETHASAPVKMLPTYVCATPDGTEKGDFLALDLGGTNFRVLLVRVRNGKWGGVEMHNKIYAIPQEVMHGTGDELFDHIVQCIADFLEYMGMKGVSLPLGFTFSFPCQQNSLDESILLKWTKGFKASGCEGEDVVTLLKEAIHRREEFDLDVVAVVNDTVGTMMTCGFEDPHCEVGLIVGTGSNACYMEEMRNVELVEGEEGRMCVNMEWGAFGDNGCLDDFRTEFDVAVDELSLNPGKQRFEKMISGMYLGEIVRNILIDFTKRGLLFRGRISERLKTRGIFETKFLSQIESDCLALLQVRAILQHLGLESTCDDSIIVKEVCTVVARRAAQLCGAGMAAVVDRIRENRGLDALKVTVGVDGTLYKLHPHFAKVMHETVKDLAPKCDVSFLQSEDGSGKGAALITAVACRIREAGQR

[11] = system: SW480 cells; experiment: Determination of lactate generation; assay type: cell-based, human; details: 48 h; versus untreated or Met treated control
Procedure: After 48 h drug treatment, media was collected and assayed following the manufacturer’s instructions of Lactic Acid Production Detection kit (KeyGen, Nanjing, China) to measure the generation of lactic acid. The assay was determined using a plate reader (Synergy HT, BioTek, USA) at 530 nm. Met was used as a positive control.

[12] = system: p-AMPKα in SW480 cells; experiment: Western blot analysis; assay type: cell-based, human; details: 75, 150 and 300 μM
Procedure: The harvested cells were lysed with radioimmunoprecipitation assay (RIPA) buffer (Beyotime, China). Insoluble debris was removed by centrifugation and the concentration of total proteins was determined using BCA Protein Assay Kit (Beyotime, China). Then lysate protein (20-40 μg) was subjected to 10% SDS-PAGE and electrophoretically transferred to polyvinylidene difluoride membranes (PVDF) (Millipore, USA). […] Protein bands were visualized using an enhanced chemiluminescence reagent (ECL Plus) (GE Healthcare, USA) after hybridization with a HRP conjugated secondary antibody. All experiments were performed in triplicate and analyzed by optical density.

[13] = Detection of free Benz in tumor tissue (HPLC); assay type: in vivo, mouse; details: 600 mg/Kg Benz-treated group
Procedure: After recording the weights of tumor mass, tumor tissues from 600 mg/Kg Benz-treated group and 200 mg/Kg liposomal Benz-treated group were lightly washed and blotted to remove any excess blood. Then tumor tissues were homogenized and extracted with methanol, and 100 μL of the extracts were then subjected to HPLC assay. HPLC analysis was conducted by using a reverse phase column (Restek C18 5 μm, 250 mm × 4.6 mm) with a mobile phase of methanol-water- trifluoroacetic acid (20: 1000: 1).

[14] = system: SW480 cells; experiment: Soft agar colony formation assay; assay type: cell-based, human; details: 100 μM
Procedure: About 0.6% agar was poured into the six-well plate. […] Media was changed every three days, and colonies were further observed for 10 days. Colonies were then stained with 0.01% of crystal violet staining solution for 2 h.

## NC(CO)C(=O)NNCc1ccc(O)c(O)c1O (stereo not drawn) [Benz, Benserazide]
[1]; African green monkey, Vero normal cells
  IC50 at 48 h: > 500 µM
[1]; human, LO2 normal cells
  IC50 at 48 h: > 500 µM
[2]
  IC50: 186 ± 12.5 µM
[3]
  IC50: 151 ± 4.5 µM
[4]
  IC50: 210 ± 7.9 µM
[5]
  IC50: 181 ± 11.5 µM
[6]
  IC50: 143 ± 7 µM
[7]
  cell proliferation: markedly inhibited proliferation
[8]
  cell proliferation: markedly inhibited proliferation
[9]
  tumor apoptosis and pathological changes (TUNEL, H&E): induced tumor apoptosis and pathological changes
[10]; Benz 5 μM
  Vmax: 0.037 OD/min
[10]; Benz 10 μM
  Vmax: 0.029 OD/min
[10]; Benz 20 μM
  Vmax: 0.018 OD/min
[10]; versus glucose
  mechanism of inhibition: combined mechanism of both competitive and noncompetitive binding
[11]
  concentration of lactate in cell culture supernatant: remarkably decreased
[12]
  phosphorylation of AMPKα: increased
[13]
  average concentration of free Benz in tumor tissue: 5.59 µg/mg
[14]
  anchorage-independent growth (colony formation): dramatically reduced the ability to form colonies

Reference: PMC5399312 (Journal of Experimental & Clinical Cancer Research : CR, 2017)
